Laboratory results reported in patent publication US7772241B2, “Variolin derivatives and their use as antitumor agents” (Pharma Mar S.A., priority 2001, dated 2010).

How the values were obtained:
K-562 = experiment: Inhibition of cells growth by colorimetric (SRB) assay, K-562
Outline: (§1)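 Human tumour cells seeded at 5×10^3/well in RPMI 1640 10% FBS, attached 18 h, then exposed 48 h to samples at 10 to 10^−8 μg/ml in DMSO/EtOH/PBS (0.5:0.5:99). Growth read by SRB staining after TCA fixation, OD 490 nm, triplicate wells; GI, TGI and LC derived.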

A-549 = experiment: Inhibition of cells growth by colorimetric (SRB) assay, A-549
Outline: as §1

SK-MEL-28 = experiment: Inhibition of cells growth by colorimetric (SRB) assay, SK-MEL-28
Outline: as §1

HT-29 = experiment: Inhibition of cells growth by colorimetric (SRB) assay, HT-29
Outline: as §1

LoVo = experiment: Inhibition of cells growth by colorimetric (SRB) assay, LoVo
Outline: as §1

LoVo-Dox = experiment: Inhibition of cells growth by colorimetric (SRB) assay, LoVo-Dox
Outline: as §1

DU-145 = experiment: Inhibition of cells growth by colorimetric (SRB) assay, DU-145
Outline: as §1

LNCaP = experiment: Inhibition of cells growth by colorimetric (SRB) assay, LNCaP
Outline: as §1

SK-BR-3 = experiment: Inhibition of cells growth by colorimetric (SRB) assay, SK-BR-3
Outline: as §1

IGROV-1 = experiment: Inhibition of cells growth by colorimetric (SRB) assay, IGROV-1
Outline: as §1

IGROV-ET = experiment: Inhibition of cells growth by colorimetric (SRB) assay, IGROV-ET
Outline: as §1

HeLa = experiment: Inhibition of cells growth by colorimetric (SRB) assay, HeLa
Text: (§2) The finality of these assays is to interrupt the growth of a “in vitro” tumor cell culture by means a continued exhibition of the cells to the sample to be testing.
(§3) This form of the assay employs 96 well cell culture microplates of 9 mm diameter (Faircloth, 1988; Mosmann, 1983). Most of the cell lines are obtained from American Type Culture Collection (ATCC) derived from different human cancer types.
(§4) Cells are maintained in RPMI 1640 10% FBS, supplemented with 0.1 g/l penicillin and 0.1 g/l streptomycin sulphate and then incubated at 37° C., 5% CO2 and 98% humidity. For the experiments, cells were harvested from subconfluent cultures using trypsin and resuspended in fresh medium before plating.
(§5) Cells are seeded in 96 well microtiter plates, at 5×10^3 cells per well in aliquots of 195 μl medium, and they are allowed to attach to the plate surface by growing in drug free medium for 18 hours. Afterward, samples are added in aliquots of 5 μl in a ranging from 10 to 10^−8 μg/ml, dissolved in DMSO/EtOH/PBS (0.5:0.5:99). After 48 hours exposure, the antitumor effect are measured by the SRB methodology: cells are fixed by adding 50 μl of cold 50% (wt/vol) trichloroacetic acid (TCA) and incubating for 60 minutes at 4° C. Plates are washed with deionized water and dried. One hundred μl of SRB solution (0.4% wt/vol in 1% acetic acid) is added to each microtiter well and incubated for 10 minutes at room temperature. Unbound SRB is removed by washing with 1% acetic acid. Plates are air dried and bound stain is solubilized with Tris buffer. Optical densities are read on a automated spectrophotometric plate reader at a single wavelength of 490 nm.
(§6) The values for mean +/−SD of data from triplicate wells are calculated. Some parameters for cellular responses can be calculated: GI=growth inhibition, TGI=total growth inhibition (cytostatic effect) and LC=cell killing (cytotoxic effect).

HeLa-APL = experiment: Inhibition of cells growth by colorimetric (SRB) assay, HeLa-APL
Text: as §2, §3, §4, §5, §6

PANC-1 = experiment: Inhibition of cells growth by colorimetric (SRB) assay, PANC-1
Outline: as §1

CSc1nccc(-c2c3cc4ccccc4nc3n3c(N)nccc23)n1 [Compound 18a]
GI50 (K-562; Homo sapiens, K562, 48 h, read-out: K-562 GI50, SRB assay, 48 hours exposure): 4.72 µM
CC50 (K-562; Homo sapiens, K562, 48 h, read-out: K-562 LC50, SRB assay, 48 hours exposure): ≥ 27.9 µM
K-562 TGI (K-562; SRB assay, 48 hours exposure): 1.66E−05
GI50 (A-549; Homo sapiens, A549, 48 h, read-out: A-549 GI50, SRB assay, 48 hours exposure): 7.31 µM
CC50 (A-549; Homo sapiens, A549, 48 h, read-out: A-549 LC50, SRB assay, 48 hours exposure): ≥ 27.9 µM
A-549 TGI (A-549; SRB assay, 48 hours exposure): 1.66E−05
GI50 (SK-MEL-28; Homo sapiens, SK-MEL-28, 48 h, read-out: MEL-28 GI50, SRB assay, 48 hours exposure): 4.97 µM
CC50 (SK-MEL-28; Homo sapiens, SK-MEL-28, 48 h, read-out: MEL-28 LC50, SRB assay, 48 hours exposure): ≥ 27.9 µM
MEL-28 TGI (SK-MEL-28; SRB assay, 48 hours exposure): 1.20E−05
GI50 (HT-29; Homo sapiens, HT-29, 48 h, read-out: HT-29 GI50, SRB assay, 48 hours exposure): 4.41 µM
CC50 (HT-29; Homo sapiens, HT-29, 48 h, read-out: HT-29 LC50, SRB assay, 48 hours exposure): ≥ 27.9 µM
HT-29 TGI (HT-29; SRB assay, 48 hours exposure): 1.67E−05
GI50 (LoVo; Homo sapiens, LoVo, 48 h, read-out: LOVO GI50, SRB assay, 48 hours exposure): 5.11 µM
CC50 (LoVo; Homo sapiens, LoVo, 48 h, read-out: LOVO LC50, SRB assay, 48 hours exposure): 17 µM
LOVO TGI (LoVo; SRB assay, 48 hours exposure): 9.32E−06
GI50 (LoVo-Dox; Homo sapiens, 48 h, read-out: LOVO-DOX GI50, SRB assay, 48 hours exposure): 3.1 µM
CC50 (LoVo-Dox; Homo sapiens, 48 h, read-out: LOVO-DOX LC50, SRB assay, 48 hours exposure): ≥ 27.9 µM
LOVO-DOX TGI (LoVo-Dox; SRB assay, 48 hours exposure): 9.74E−06
GI50 (DU-145; Homo sapiens, DU-145, 48 h, read-out: DU-145 GI50, SRB assay, 48 hours exposure): 4.27 µM
CC50 (DU-145; Homo sapiens, DU-145, 48 h, read-out: DU-145 LC50, SRB assay, 48 hours exposure): 23.3 µM
DU-145 TGI (DU-145; SRB assay, 48 hours exposure): 9.99E−06
GI50 (LNCaP; Homo sapiens, LNCaP, 48 h, read-out: LN-caP GI50, SRB assay, 48 hours exposure): 3.49 µM
CC50 (LNCaP; Homo sapiens, LNCaP, 48 h, read-out: LN-caP LC50, SRB assay, 48 hours exposure): 15.3 µM
LN-caP TGI (LNCaP; SRB assay, 48 hours exposure): 7.31E−06
GI50 (SK-BR-3; Homo sapiens, SK-BR-3, 48 h, read-out: SK-BR-3 GI50, SRB assay, 48 hours exposure): 1.34 µM
CC50 (SK-BR-3; Homo sapiens, SK-BR-3, 48 h, read-out: SK-BR-3 LC50, SRB assay, 48 hours exposure): ≥ 27.9 µM
SK-BR-3 TGI (SK-BR-3; SRB assay, 48 hours exposure): 4.94E−06
GI50 (IGROV-1; Homo sapiens, IGROV-1, 48 h, read-out: IGROV GI50, SRB assay, 48 hours exposure): 5.47 µM
CC50 (IGROV-1; Homo sapiens, IGROV-1, 48 h, read-out: IGROV LC50, SRB assay, 48 hours exposure): ≥ 27.9 µM
IGROV TGI (IGROV-1; SRB assay, 48 hours exposure): 1.33E−05
GI50 (IGROV-ET; Homo sapiens, 48 h, read-out: IGROV-ET GI50, SRB assay, 48 hours exposure): 7.06 µM
CC50 (IGROV-ET; Homo sapiens, 48 h, read-out: IGROV-ET LC50, SRB assay, 48 hours exposure): ≥ 27.9 µM
IGROV-ET TGI (IGROV-ET; SRB assay, 48 hours exposure): 1.53E−05
GI50 (HeLa; Homo sapiens, HeLa, 48 h, read-out: HELA GI50, SRB assay, 48 hours exposure): 0.0449 µM
HELA TGI (HeLa; SRB assay, 48 hours exposure): 3.68E−06
GI50 (HeLa-APL; Homo sapiens, 48 h, read-out: HELA-APL GI50, SRB assay, 48 hours exposure): 0.0569 µM
CC50 (HeLa-APL; Homo sapiens, 48 h, read-out: HELA-APL LC50, SRB assay, 48 hours exposure): 6.56 µM
HELA-APL TGI (HeLa-APL; SRB assay, 48 hours exposure): 8.31E−07
GI50 (PANC-1; Homo sapiens, PANC-1, 48 h, read-out: PANC-1 GI50, SRB assay, 48 hours exposure): 6.53 µM
CC50 (PANC-1; Homo sapiens, PANC-1, 48 h, read-out: PANC-1 LC50, SRB assay, 48 hours exposure): ≥ 27.9 µM
PANC-1 TGI (PANC-1; SRB assay, 48 hours exposure): 1.46E−05
